Patent US10807956B2, “Histone demethylase inhibitors” (CELGENE QUANTICEL RESEARCH, INC., priority 2012, dated 2020)

What follows are substances tested against JMJD2C (Homo sapiens (Human), UniProt Q9H3R0) (assay: JMJD2C TR-FRET enzyme inhibition assay). Settings: H3K9me3-biotin peptide.
Assay type: biochemical
Description: This assay determines the ability of a test compound to inhibit Jarid1A, Jarid1B, and JMJD2C demethylase activity. Baculovirus expressed Jarid1A (GenBank Accession # NM_001042603, AA1-1090) was purchased from BPS Bioscience (Cat #50110). Baculovirus expressed Jarid1B (GenBank Accession # NM_006618, AA 2-751) was purchased from BPS Bioscience (Cat #50121) or custom made by MolecularThroughput. Baculovirus-expressed JMJD2C (GenBank Accession # BC143571, AA 2-372) was purchased from BPS Bioscience (Cat #50105).
The ability of test compounds to inhibit the activity of JMJD2C was determined in 384-well plate format under the following reaction conditions: 0.3 nM JMJD2C, 300 nM H3K9me3-biotin labeled peptide (Anaspec cat #64360), 2 μM alpha-ketoglutaric acid in assay buffer of 50 mM HEPES, pH7.3, 0.005% Brij35, 0.5 mM TCEP, 0.2 mg/ml BSA, 50 μM sodium L-ascorbate, and 2 μM ammonium iron(II) sulfate. Reaction product was determined quantitatively by TR-FRET after the addition of detection reagent Phycolink Streptavidin-allophycocyanin (Prozyme) and Europium-anti-di-methylated histone H3 lysine 9 (H3K9me2) antibody (PerkinElmer) in the presence of 5 mM EDTA in LANCE detection buffer (PerkinElmer) at a final concentration of 50 nM and 1 nM, respectively.
The assay reaction was initiated by the following: 2 μl of the mixture of 900 nM H3K9me3-biotin labeled peptide and 6 μM alpha-ketoglutaric acid with 2 μl of 11-point serial diluted inhibitor in 3% DMSO were added to each well of the plate, followed by the addition of 2 μl of 0.9 nM JMJD2C to initiate the reaction. The reaction mixture was incubated at room temperature for 30 min, and terminated by the addition of 6 μl of 5 mM EDTA in LANCE detection buffer containing 100 nM Phycolink Streptavidin-allophycocyanin and 2 nM Europium-anti-H3K9me2 antibody. Plates were read by EnVisionMultilabel Reader in TR-FRET mode (excitation at 320 nm, emission at 615 nm and 665 nm) after 1 hr incubation at rt. A ratio was calculated (665/615) for each well and fitted to determine inhibition constant (IC50).

Chain of JMJD2C (Q9H3R0 2-372): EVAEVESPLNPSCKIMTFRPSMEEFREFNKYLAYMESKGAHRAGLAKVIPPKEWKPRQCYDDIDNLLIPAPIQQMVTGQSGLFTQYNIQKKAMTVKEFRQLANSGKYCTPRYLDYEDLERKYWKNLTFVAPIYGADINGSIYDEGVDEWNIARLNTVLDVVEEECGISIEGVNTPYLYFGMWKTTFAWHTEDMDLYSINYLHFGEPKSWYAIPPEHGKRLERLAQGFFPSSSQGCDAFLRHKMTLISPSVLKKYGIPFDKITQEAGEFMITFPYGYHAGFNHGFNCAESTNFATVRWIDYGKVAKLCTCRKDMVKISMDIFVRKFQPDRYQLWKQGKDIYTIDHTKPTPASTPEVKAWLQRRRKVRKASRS

Row | Substance | IC50
1 | 3-{[(6-chloro-1,2,3,4-tetrahydronaphthalen-1-yl)methyl]- amino}pyridine-4-carboxylic acid [Example 68] | 100 to 1000 nM
2 | 3-{[(6-chloro-1-hydroxy-1,2,3,4-tetrahydronaphthalen-1- yl)methyl]amino}pyridine-4-carboxylic acid [Example 67] | 100 to 1000 nM
3 | 3-{[(7-fluoro-3,4-dihydro-2H-chromen-4-yl)methyl]- amino}pyridine-4-carboxylic acid [Example 65] | < 100 nM
